In one assay the target is recombinant form of Glutaminase 1 (GAC) (Homo sapiens, UniProt O94925). As to the kind of experiment: Recombinant Enzyme Assay (GAC coupled to GDH, NADH absorbance, no preincubation). The format is biochemical. Conditions: no preincubation; read-out: GAC Delta N2 IC50 no. The method, then: Enzymatic reaction was started with the addition of 50 μL of enzyme solution (50 mM Tris-HCl pH 8.0, 0.2 mM EDTA, 150 mM K2HPO4, 0.1 mg/ml BSA, 1 mM DTT, 10 ppm antifoam, 4 units/ml GDH, 4 mM adenosine diphosphate, and 4 nM GAC) and read in a Molecular Devices M5 plate reader at 20° C. The plate reader was configured to read absorbance (λ=340 nm) in kinetic mode for 15 minutes. Data was recorded as milli-absorbance units per minute and slopes were compared to a control compound and a DMSO-only control on the same plate. Compounds with slopes less than the DMSO control were considered inhibitors and plate variability was assessed using the control compound.
Take `O=C(Cc1cccnc1)Nc1nnc(CCSCCc2nnc(NC(=O)Cc3cccnc3)s2)s1` [Compound 638]: the IC50 was determined as 0.48 µM.

The assay is the same for the next values; noted with them: no preincubation; read-out: GAC Delta N2 IC50 no preinc.
Take `N[C@H](C(=O)Nc1nnc(CCSCCc2nnc(NC(=O)[C@@H](N)c3ccccc3)s2)s1)c1ccccc1` [Compound 175]: the IC50 stood at 6.3 µM.

Regarding `CC(C)[C@H](N)C(=O)OCC(C(=O)Nc1nnc(CCCCc2nnc(NC(=O)C(COC(=O)[C@@H](N)C(C)C)c3ccccc3)s2)s1)c1ccccc1` (some centres unmarked) [Compound 291], the IC50 turned out to be 1.5 µM.

`N[C@@H](CO)C(=O)Nc1nnc(CCCCc2nnc(NC(=O)[C@@H](N)CO)s2)s1` [Compound 140]: the IC50 came to 3.4 µM.

Take `COc1ccccc1C(C)C(=O)Nc1nnc(CCSCCc2nnc(NC(=O)C(C)c3ccccc3OC)s2)s1` (centres unmarked) [Compound 263]: the IC50 came out at 0.32 µM.

`COC(=O)C(CC(=O)Nc1nnc(CCCCc2nnc(NC(=O)CC(C(=O)O)c3ccccc3)s2)s1)c1ccccc1` (centres unmarked) [Compound 178]: the IC50 was 1.5 µM.

On to `O=C(Cc1ccco1)Nc1nnc(CCSCCc2nnc(NC(=O)Cc3ccco3)s2)s1` [Compound 82], for which the IC50 is 0.8 µM.

Regarding `O=C(Nc1nnc(CCSCCc2nnc(NC(=O)C3Oc4ccccc4O3)s2)s1)C1Oc2ccccc2O1` [Compound 134], the IC50 amounted to 14 µM.

In the case of `O=C(Cc1ccco1)Nc1nnc(CCCCc2nnc(NC(=O)Cc3ccco3)s2)s1` [Compound 86], the IC50 turned out to be 0.32 µM.

For `Nc1ccc(CC(=O)Nc2nnc(CCSCCc3nnc(NC(=O)Cc4ccc(N)cc4)s3)s2)cc1` [Compound 195], the IC50 was 0.3 µM.

Turning to `O=C(Nc1nnc(CCSCCc2nnc(NC(=O)C3CCOCC3)s2)s1)C1CCOCC1` [Compound 108], the IC50 is over 20 µM.

Take `O=C(Cc1ccccc1)Nc1nnc(CCCCc2nnc(NC(=O)Cc3ccccc3CO)s2)s1` [Compound 333]: the IC50 came out at 0.1 µM.

`CC(CCC(C)c1nnc(NC(=O)Cc2ccccc2)s1)c1nnc(NC(=O)Cc2ccccc2)s1` (centres unmarked) [Compound 289]: the IC50 worked out at 32 µM.

As for `COc1ccc(C(=O)Nc2nnc(CCSCCc3nnc(NC(=O)c4ccc(OC)cc4)s3)s2)cc1` [Compound 3], the IC50 is over 50 µM.

For the compound `CCOc1ccccc1CC(=O)Nc1nnc(CCSCCc2nnc(NC(=O)Cc3ccccc3OCC)s2)s1` [Compound 299], the IC50 was 0.33 µM.

Take `O=C(Cc1cc2ccccc2s1)Nc1nnc(CCSCCc2nnc(NC(=O)Cc3cc4ccccc4s3)s2)s1` [Compound 207]: the IC50 is 13 µM.

For `COc1ccc(Cl)c(CC(=O)Nc2nnc(CCCCc3nnc(NC(=O)Cc4ccccc4)s3)s2)c1F` [Compound 343], the IC50 stood at 0.16 µM.

Take `O=C(Nc1nnc(CCSCCc2nnc(NC(=O)C3CC4CCC3C4)s2)s1)C1CC2CCC1C2` (centres unmarked) [Compound 38]: the IC50 is over 50 µM.

As to `O=C(Cc1ccccc1F)Nc1nnc(CCCCc2nnc(NC(=O)Cc3ccccc3F)s2)s1` [Compound 292], the IC50 was 0.12 µM.

For `CC(C)[C@H](NC(=O)OC(C)(C)C)C(=O)Nc1nnc(CCSCCc2nnc(NC(=O)[C@@H](NC(=O)OC(C)(C)C)C(C)C)s2)s1` [Compound 34], the IC50 was over 50 µM.

For `CC1(C)OC(=O)[C@@H](CC(=O)Nc2nnc(CCSCCc3nnc(NC(=O)C[C@H]4OC(C)(C)OC4=O)s3)s2)O1` [Compound 104], the IC50 is over 20 µM.

Take `O=C(Cc1ccccc1)Nc1nnc(CCNCCc2nnc(NC(=O)Cc3ccccc3)s2)s1` [Compound 149, N,N′-(5,5′-(azanediyl-bis(ethane-2,1-diyl))-bis(1,3,4-thiadiazole-5,2-diyl))-bis(2-phenylacetamide) trifluoroacetic acid]: the IC50 was found to be 15 µM.

In the case of `O=C(Nc1nnc(CCCc2nnc(NC(=O)C(O)c3ccccc3)s2)s1)C(O)c1ccccc1` (centres unmarked) [Compound 172], the IC50 was found to be 1.7 µM.

For `O=C(Cn1ccc2ccccc21)Nc1nnc(CCSCCc2nnc(NC(=O)Cn3ccc4ccccc43)s2)s1` [Compound 213], the IC50 turned out to be 2.5 µM.

For the compound `COc1ccc(C(O)C(=O)Nc2nnc(CCCCc3nnc(NC(=O)C(O)c4ccc(OC)cc4)s3)s2)cc1` (centres unmarked) [Compound 320], the IC50 worked out at 0.4 µM.

`Nc1nnc(CCSCCc2nnc(NC(=O)[C@@H]3CCCN3C(=O)C(F)(F)F)s2)s1` [Compound 23]: the IC50 is over 50 µM.

`CC[C@@](O)(C(=O)Nc1nnc(CCSCCc2nnc(NC(=O)[C@](O)(CC)c3ccccc3)s2)s1)c1ccccc1` [Compound 142]: the IC50 is over 20 µM.

Regarding `O=C(Cc1ccccc1)Nc1nnc(CCCCc2nnc(NC(=O)OCc3ccccc3)s2)s1` [Compound 374], the IC50 turned out to be 0.26 µM.

Turning to `O=C(Cc1ccccc1)Nc1nnc(CCSCc2nnc(NC(=O)C(O)c3cccc(Cl)c3)s2)s1` (centres unmarked) [Compound 376], the IC50 stood at 0.35 µM.

Take `O=C(Cc1cccs1)Nc1nnc(CCSCc2nnc(NC(=O)Cc3cccs3)s2)s1` [Compound 237]: the IC50 amounted to 0.2 µM.

Consider `Nc1ccc(CC(=O)Nc2nnc(CCCCc3nnc(NC(=O)Cc4ccc(N)cc4)s3)s2)cc1` [Compound 196], for which the IC50 worked out at 0.19 µM.

Regarding `O=C(OCCCN1CCOCC1)OCN(C(=O)Cc1ccccc1)c1nnc(CCSCCc2nnc(N(COC(=O)OCCCN3CCOCC3)C(=O)Cc3ccccc3)s2)s1` [Compound 28], the IC50 is over 50 µM.

For the compound `O=C(Cc1ccccc1)Nc1nnc(CCSCCc2nnc(N(COC(=O)OCCCN3CCOCC3)C(=O)Cc3ccccc3)s2)s1` [Compound 27], the IC50 is over 50 µM.

Turning to `O=C(Nc1nnc(CCCCc2nnc(NC(=O)C(F)(F)F)s2)s1)C(F)(F)F` [Compound 45], the IC50 was over 50 µM.

Turning to `CC(C)[C@H](NC(=O)OC(C)(C)C)C(=O)Nc1nnc(CCCCc2nnc(NC(=O)[C@@H](NC(=O)OC(C)(C)C)C(C)C)s2)s1` [Compound 42], the IC50 is over 50 µM.

For `COc1ccccc1CC(=O)Nc1nnc(CCSCCc2nnc(NC(=O)Cc3ccccc3OC)s2)s1` [Compound 219], the IC50 is 0.17 µM.

With `O=C(Nc1nnc(CCCCc2nnc(NC(=O)C(F)(F)c3ccccc3)s2)s1)C(F)(F)c1ccccc1` [Compound 303], the IC50 is over 20 µM.

As for `O=C(Nc1nnc(CCCCc2nnc(NC(=O)C3Oc4ccccc4O3)s2)s1)C1Oc2ccccc2O1` [Compound 136], the IC50 was 7 µM.

In the case of `O=C(Cc1ccccc1)Nc1nnc(CCSCCc2nnc(NC(=O)[C@@H]3CCCN3C(=O)C(F)(F)F)s2)s1` [Compound 35], the IC50 was 18 µM.

As to `O=C(Cc1coc2ccccc12)Nc1nnc(CCSCCc2nnc(NC(=O)Cc3coc4ccccc34)s2)s1` [Compound 221], the IC50 is over 20 µM.

Turning to `NCC(C(=O)Nc1nnc(CCSCCc2nnc(NC(=O)C(CN)c3ccccc3)s2)s1)c1ccccc1` (centres unmarked) [Compound 230], the IC50 was 12 µM.

With `O=C(Cc1ccccc1)Nc1nnc(CSCc2nnc(NC(=O)Cc3ccccc3)s2)s1` [Compound 145], the IC50 is over 20 µM.

For `O=C(Nc1nnc(CCCCc2nnc(NC(=O)C(CO)c3cccs3)s2)s1)C(CO)c1cccs1` (centres unmarked) [Compound 190], the IC50 was 0.25 µM.

As to `COCCC(=O)Nc1nnc(CCSCCc2nnc(NC(=O)CCOC)s2)s1` [Compound 101], the IC50 was determined as 24 µM.

For `O=C(CC1CCCNC1)Nc1nnc(CCCCc2nnc(NC(=O)CC3CCCNC3)s2)s1` (centres unmarked) [Compound 130], the IC50 was over 20 µM.

On to `CCOC(=O)Nc1nnc(CCSCCc2nnc(NC(=O)OCC)s2)s1` [Compound 356], for which the IC50 is over 20 µM.

In the case of `COc1ccc(OC)c(CC(=O)Nc2nnc(CCCc3nnc(NC(=O)Cc4cc(OC)ccc4OC)s3)s2)c1` [Compound 265], the IC50 turned out to be 0.27 µM.

The values are drawn from patent publication US8604016B2, “Heterocyclic inhibitors of glutaminase” (Calithera Biosciences Inc., priority 2011, dated 2013).
